Key:
TLR8 [1] = molecular target: T1, TLR8 (Homo sapiens, UniProt Q9NR97); test: Inhibition of TL8-506-stimulated NF-κB activity (SEAP reporter, QuantiBlue) in hTLR8-HEK293 reporter cells; type: cell-based; design: host or cells: HEK293 (HEK-Blue hTLR8); conditions: for inhibition at 10 µM: read-out: % inhibition at 10 µM ± SEM (NF-κB activity); for IC50: read-out: IC50 [μM] (95% CI) hTLR8-HEK293, inhibition of NF-κB activity, 1 h preincubation
T1 sequence (Q9NR97 27-1041): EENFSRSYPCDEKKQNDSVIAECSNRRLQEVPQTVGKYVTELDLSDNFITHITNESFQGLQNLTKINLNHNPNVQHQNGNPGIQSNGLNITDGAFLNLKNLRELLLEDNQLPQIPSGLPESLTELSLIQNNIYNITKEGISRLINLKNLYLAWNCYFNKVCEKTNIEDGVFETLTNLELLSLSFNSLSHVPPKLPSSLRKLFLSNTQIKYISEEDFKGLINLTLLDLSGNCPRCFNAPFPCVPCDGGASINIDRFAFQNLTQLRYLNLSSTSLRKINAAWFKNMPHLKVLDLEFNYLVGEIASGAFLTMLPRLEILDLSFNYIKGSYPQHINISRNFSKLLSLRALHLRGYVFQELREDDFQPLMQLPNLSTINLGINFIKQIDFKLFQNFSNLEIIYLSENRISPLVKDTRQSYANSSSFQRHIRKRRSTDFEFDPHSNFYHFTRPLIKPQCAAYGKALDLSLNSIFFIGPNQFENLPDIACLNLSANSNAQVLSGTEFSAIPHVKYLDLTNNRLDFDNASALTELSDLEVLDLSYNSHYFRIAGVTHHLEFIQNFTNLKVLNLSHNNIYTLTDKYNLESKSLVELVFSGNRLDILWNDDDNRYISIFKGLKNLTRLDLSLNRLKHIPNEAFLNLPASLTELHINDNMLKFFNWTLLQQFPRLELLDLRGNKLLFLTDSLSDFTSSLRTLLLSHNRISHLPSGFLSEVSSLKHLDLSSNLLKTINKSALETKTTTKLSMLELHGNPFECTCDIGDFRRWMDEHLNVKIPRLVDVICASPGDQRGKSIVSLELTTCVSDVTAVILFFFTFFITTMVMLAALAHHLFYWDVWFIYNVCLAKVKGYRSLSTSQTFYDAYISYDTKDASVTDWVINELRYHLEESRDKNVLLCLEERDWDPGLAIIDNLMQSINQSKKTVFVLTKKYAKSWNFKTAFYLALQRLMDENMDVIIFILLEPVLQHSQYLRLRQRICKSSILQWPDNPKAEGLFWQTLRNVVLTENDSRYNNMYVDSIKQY

TLR8 [2] = molecular target: T1, TLR8; conditions: TL8-506 alone
[3] = 10 µM compound, TL8-506 (0.6 μM) 24 h, hTLR8-HEK293

| Molecule | inhibition at 10 µM (TLR8 [1]; [3]) | IC50 (TLR8 [1]; TL8-506 (0.6 μM) 24 h) | other results |
| --- | --- | --- | --- |
| Cc1noc(C)c1COc1cccc(C(=O)N2CCCC(C)C2CN)c1 (stereo not shown) [Compound 2] | 3 ± 2% |  |  |
| Cc1noc(C)c1COc1cccc(C(=O)N2CCN(C)CC2C)c1 (stereo not shown) [Compound 3] | -6 ± 2% |  |  |
| Cc1noc(C)c1COc1ccc(C(=O)NCC(c2c(F)cccc2Cl)N(C)C)cc1 (stereo not shown) [Compound 5] | 37 ± 7% |  |  |
| Cc1noc(C)c1COc1cccc(C(=O)NCCN(C(C)C)C(C)C)c1 [Compound 6] | 9 ± 4% |  |  |
| Cc1noc(C)c1COc1cccc(C(=O)N2CCCN(Cc3ccc(C(F)(F)F)cc3)CC2)c1 [Compound 7] | 5 ± 7% |  |  |
| CCN1CCC(CNC(=O)c2cccc(OCc3c(C)noc3C)c2)CC1 [Compound 8] | 20 ± 4% |  |  |
| COc1cc(C(=O)NCCN2CCCC2)ccc1OCc1c(C)noc1C [Compound 11] |  | 6.62 µM |  |
| Cc1noc(C)c1COc1ccc(C(=O)N2CCN(Cc3ccccc3)CC2)cc1 [Compound 17, 4-Benzylpiperazin-1-yl(4-((3,5-Dimethylisoxazol-4-yl)methoxy)phenyl)methanone] | 52 ± 4% |  | inhibition of NF-κB at 10 μM (in words) (TLR8 [1]; hTLR8-HEK293): moderate |
| Cc1noc(C)c1COc1ccc(C(=O)NCCN2CCCC2)cc1 [Compound 18, 4-((3,5-Dimethylisoxazol-4-yl)methoxy)-N-(2-(pyrrolidin-1-yl)ethyl)benzamide] | 61 ± 3% |  |  |
| Cc1noc(C)c1COc1ccc(C(=O)NC2CCN(C)C2)cc1 (stereo not shown) [Compound 19, 4-((3,5-Dimethylisoxazol-4-yl)methoxy)-N-(1-methylpyrrolidin-3-yl)benzamide] | 89 ± 2% | 3.06 µM |  |
| Cc1noc(C)c1COc1ccc(C(=O)NN2CCN(C)CC2)cc1 [Compound 20, 4-((3,5-Dimethylisoxazol-4-yl)methoxy)-N-(4-methylpiperazin-1-yl)benzamide] | 63 ± 0.7% |  |  |
| Cc1noc(C)c1COc1ccc(C(=O)N2CCC(N3CCCC3)CC2)cc1 [Compound 21, (4-((3,5-Dimethylisoxazol-4-yl)methoxy)phenyl)(4-(pyrrolidin-1-yl)piperidin-1-yl)methanone] | 75 ± 2% |  |  |
| COc1cc(C(=O)N2CCN(Cc3ccccc3)CC2)ccc1OCc1c(C)noc1C [Compound 22, (4-Benzylpiperazin-1-yl)(4-((3,5-dimethylisoxazol-4-yl)methoxy)-3-methoxyphenyl)methanone] | 54 ± 3% |  | inhibition of NF-κB at 10 μM (in words) (TLR8 [1]; hTLR8-HEK293): moderate |
| COc1cc(C(=O)NN2CCN(C)CC2)ccc1OCc1c(C)noc1C [Compound 23, 4-((3,5-Dimethylisoxazol-4-yl)methoxy)-3-methoxy-N-(4-methylpiperazin-1-yl)benzamide] | 57 ± 3% |  | inhibition of NF-κB at 10 μM (in words) (TLR8 [1]; hTLR8-HEK293): moderate |
| COc1cc(C(=O)N2CCC(N3CCCC3)CC2)ccc1OCc1c(C)noc1C [Compound 24, (4-((3,5-Dimethylisoxazol-4-yl)methoxy)-3-methoxyphenyl)(4-(pyrrolidin-1-yl)piperidin-1-yl)methanone] | 96 ± 2% | 3.46 µM |  |
| COc1cc(C(=O)N2CCC(N3CCCCC3)CC2)ccc1OCc1c(C)noc1C [Compound 26, [1,4′-Bipiperidin]-1′-yl(4-((3,5-dimethylisoxazol-4-yl)methoxy)-3-methoxyphenyl)methanone] | 77 ± 4% | 18.3 µM |  |
| COc1cc(C(=O)NC2CCN(C)C2)ccc1OCc1c(C)noc1C (stereo not shown) [Compound 27, 4-((3,5-Dimethylisoxazol-4-yl)methoxy)-3-methoxy-N-(1-methylpyrrolidin-3-yl)benzamide] | 84 ± 4% | 8.15 µM |  |

| Molecule | inhibition at 10 µM (TLR8 [1]; [3]) | IC50 (TLR8 [1]; TL8-506 (0.6 μM) 24 h) | other results |
| --- | --- | --- | --- |
| COc1cc(C(=O)NC2CCN(C(C)C)CC2)ccc1OCc1c(C)noc1C [Compound 28, 4-((3,5-Dimethylisoxazol-4-yl)methoxy)-N-(1-isopropylpiperidin-4-yl)-3-methoxybenzamide] | 97 ± 1% | 1.73 µM |  |
| CCN1CCC(NC(=O)c2ccc(OCc3c(C)noc3C)c(OC)c2)C1 (stereo not shown) [Compound 29, 4-((3,5-Dimethylisoxazol-4-yl)methoxy)-N-(1-ethylpyrrolidin-3-yl)-3-methoxybenzamide] | 72 ± 5% |  |  |
| COc1cc(C(=O)N2CCN(CCO)CC2)ccc1OCc1c(C)noc1C [Compound 30, (4-((3,5-Dimethylisoxazol-4-yl)methoxy)-3-methoxyphenyl)(4-(2-hydroxyethyl)piperazin-1-yl)methanone] | 24 ± 9% |  | inhibition of NF-κB at 10 μM (in words) (TLR8 [1]; hTLR8-HEK293): low inhibition |
| CCCN1CCC(NC(=O)c2ccc(OCc3c(C)noc3C)c(OC)c2)CC1 [Compound 31, 4-((3,5-Dimethylisoxazol-4-yl)methoxy)-3-methoxy-N-(1-propylpiperidin-4-yl)benzamide] | 98 ± 0.3% | 1.66 µM |  |
| COc1cc(C(=O)NCC2CCN(C)C2)ccc1OCc1c(C)noc1C (stereo not shown) [Compound 32, 4-((3,5-Dimethylisoxazol-4-yl)methoxy)-3-methoxy-N-((1-methylpyrrolidin-3-yl)methyl)benzamide] | 77 ± 5% |  |  |
| COc1cc(C(=O)NC2CCN(C)CC2)ccc1OCc1c(C)noc1C [Compound 33, 4-((3,5-Dimethylisoxazol-4-yl)methoxy)-3-methoxy-N-(1-methylpiperidin-4-yl)benzamide] | 94 ± 2% |  |  |
| Cc1noc(C)c1COc1ccc(C(=O)NC2CCN(C)CC2)cc1 [Compound 34, 4-((3,5-Dimethylisoxazol-4-yl)methoxy)-N-(1-methylpiperidin-4-yl)benzamide] | 97 ± 0.9% | 1.68 µM |  |
| Cc1noc(C)c1COc1ccc(C(=O)NC2CCN(C(C)C)CC2)cc1 [Compound 35, 4-((3,5-Dimethylisoxazol-4-yl)methoxy)-N-(1-isopropylpiperidin-4-yl)benzamide] | 99 ± 0.2% | 0.99 µM |  |
| Cc1noc(C)c1COc1ccc(C(=O)N2CCN(CCO)CC2)cc1 [Compound 36, (4-((3,5-Dimethylisoxazol-4-yl)methoxy)phenyl)(4-(2-hydroxyethyl)piperazin-1-yl)methanone] | 26 ± 2% |  | inhibition of NF-κB at 10 μM (in words) (TLR8 [1]; hTLR8-HEK293): low inhibition |
| Cc1noc(C)c1COc1ccc(C(=O)NCC2CCN(C)C2)cc1 (stereo not shown) [Compound 37, 4-((3,5-Dimethylisoxazol-4-yl)methoxy)-N-((1-methylpyrrolidin-3-yl)methyl)benzamide] | 80 ± 2% |  |  |
| CCCN1CCC(NC(=O)c2ccc(OCc3c(C)noc3C)cc2)CC1 [Compound 38, 4-((3,5-Dimethylisoxazol-4-yl)methoxy)-N-(1-propylpiperidin-4-yl)benzamide] | 100 ± 0.1% | 0.78 µM |  |
| CCN1CCC(NC(=O)c2ccc(OCc3c(C)noc3C)cc2)CC1 [Compound 39, 4-((3,5-Dimethylisoxazol-4-yl)methoxy)-N-(1-ethylpiperidin-4-yl)benzamide] | 100 ± 0.2% | 1.1 µM |  |
| CCCCN1CCC(NC(=O)c2ccc(OCc3c(C)noc3C)cc2)CC1 [Compound 40, N-(1-Butylpiperidin-4-yl)-4-((3,5-dimethylisoxazol-4-yl)methoxy)benzamide] | 99 ± 0.4% | 0.73 µM |  |
| C=CCN1CCC(NC(=O)c2ccc(OCc3c(C)noc3C)cc2)CC1 [Compound 41, N-(1-Allylpiperidin-4-yl)-4-((3,5-dimethylisoxazol-4-yl)methoxy)benzamide] | 99 ± 0.7% | 0.5 µM |  |
| Cc1noc(C)c1COc1ccc(C(=O)NC2CCNCC2)cc1 [Compound 43, 4-((3,5-Dimethylisoxazol-4-yl)methoxy)-N-(piperidin-4-yl)benzamide] | 32% |  |  |
| CCOC(=O)C1=Cc2ccc(-c3cccc(C#N)c3)cc2N=C(N)C1 [TL8-506] |  |  | ECmax [%] (95% CI) of TL8-506 (TLR8 [2]): 97.6 (92.9-104.7) %; EC50 (TLR8 [2]; read-out: EC50 [µM] (95% CI) of TL8-506): 0.19 µM |
| (4-((3,5-Dimethylisoxazol-4-yl)methoxy)-3-methoxyphenyl)(5-methylhexahydropyrrolo[3,4-c]pyrrol-2(1H)-yl)methanone [Compound 25] |  |  | % inhibition at 10 µM ± SEM (NF-κB activity) (TLR8 [1]; [3]): 68 ± 6% |

Source: publication PMC12613816, “Discovery of Novel Isoxazole-Based Small-Molecule Toll-Like Receptor 8 Antagonists” (Journal of Medicinal Chemistry, 2025)
